Assay results reported in US20240016938A1, “METHODS FOR INCREASING THE BIOAVAILABILITY OF NUCLEOSIDE MEDICINAL AGENTS” (ZOGENIX MDS, INC., priority 2022, published 2024).
Where two headings read alike, the source gives them in different places.

Experiment: Phase 1 open-label, fixed-sequence, single-ascending dose and food-effect PK study of MT1621 in adult healthy subjects
Format: in vivo, human
Details: for half-life: read-out: t½ (converted)
Description: A phase 1 study was conducted as an open-label, fixed-sequence, single-ascending dose study in adult healthy subjects designed to evaluate the safety, tolerability, PK, and food-effect of MT1621 (dC and dT). To evaluate the PK of MT1621, the combination was administered at three different doses. Treatment A was a 43.3 mg/kg dose of MT1621 (i.e., a 43.3 mg/kg dose of dC and a 43.3 mg/kg dose of dT (each approximately equivalent to 1 dose of a 130 mg/kg daily dose, divided 3 times daily [TID])) in healthy male and female subjects under fasting conditions; Treatment B was an 86.7 mg/kg dose of MT1621 (i.e., a 86.7 mg/kg dose of dC and a 86.7 mg/kg dose of dT (each approximately equivalent to 1 dose of a 260 mg/kg daily dose, divided TID)) in healthy male and female subjects under fasting conditions; and Treatment C was a 133.3 mg/kg dose of MT1621 (i.e., a 133.3 mg/kg dose of dC and a 133.3 mg/kg dose of dT (each approximately equivalent to a 400 mg/kg daily dose, divided TID)) in healthy male and female subjects under fasting conditions. Additionally, Treatment D was a 133.3 mg/kg dose of MT1621 (i.e., a 133.3 mg/kg dose of dC and a 133.3 mg/kg dose of dT (each approximately equivalent to a 400 mg/kg daily dose, divided TID) in healthy male and female subjects under fed conditions, to determine the effect of a high-fat meal on the single-dose PK of MT1621.
Methodology of open-label, Phase 1, fixed-sequence, single-dose, dose escalation, and food-effect study. Fourteen (14) healthy, adult, male and female subjects were enrolled with an approximately equal distribution (at least 40% of each sex) between male and female subjects.
On Day 1 of each period, subjects received 1 of 3 dose levels of MT1621 under fasting conditions as escalating single doses over 3 periods in Part A (Treatments A, B, and C in Periods 1, 2, and 3, respectively) and with the highest dose under fed conditions in Part B (Treatment D in Period 4). Four (4) of 14 subjects that completed Part A (Periods 1 to 3) could not complete Part B (Treatment D in Period 4) during the original confinement. These subjects were then to return to the clinical unit and continue the study to complete Part B (Treatment D in Period 4); 2 of the 4 subjects completed Part B.
Each treatment was assessed by blood and urine PK sampling pre-dose and up to 48 hours post-dose for the determination of dC and dT in plasma and urine PK, and possible future analysis of blood for PD biomarkers.
A washout period of at least 2 days without drug between each treatment administration was maintained. Fourteen subjects were enrolled in the study, and 12 subjects completed the study. Data from 14 subjects were included in the PK analysis of Periods 1, 2, and 3 and data from 12 subjects were included in the PK analysis of Period 4.
Study drug administered in Example 1 was 0.5 g dC and 0.5 g dT powders for solution and were reconstituted in juice or water.
After reconstitution in a fixed amount of water or juice, the solution was administered via measured volume to provide the amounts specified in Studies A, B, C, and D.
MT1621 was administered orally at Hour 0 on Day 1, following an overnight fast for Treatments A, B, and C and within 5 minutes of consumption of a standardized high-fat breakfast (which included eggs, bacon, and toast with butter) for Treatment D.
Blood samples for the determination of plasma dC and dT concentrations were collected on Day 1 of each period at pre-dose (0 hour), and at 0.25, 0.5, 1, 1.5, 2, 3, 4, 5, 6, 8, 12, 24, and 48 after study drug administration. In Period 4, blood was collected for the 48-hour PK sample; for Periods 1 through 3, the 48-hour PK sample was collected at the same time as the pre-dose PK sample from the next period so only 1 sample was collected for both PK time points. It should be pointed out that Periods 1-3 used sampling up to 24 hours for PK while Period 4 used the complete 48-hour profile. […]

[1] = 100*(test/reference): 133.3 mg/kg MT1621 fed vs fasted, baseline-adjusted plasma
[2] = Treatment A: single 43.3 mg/kg MT1621, fasted, baseline-adjusted plasma, arithmetic mean ± SD
[3] = Treatment B: single 86.7 mg/kg MT1621, fasted, baseline-adjusted plasma, arithmetic mean ± SD
[4] = Treatment C: single 133.3 mg/kg MT1621, fasted, baseline-adjusted plasma, arithmetic mean ± SD
[5] = Treatment D: single 133.3 mg/kg MT1621, fed (high-fat breakfast), baseline-adjusted plasma, arithmetic mean ± SD
[6] = across the 3 fasted dose levels (Treatments A, B, C), plasma

## Cc1cn([C@H]2C[C@H](O)[C@@H](CO)O2)c(=O)[nH]c1=O [dT, β-D-2′-deoxythymidine]
133.3 mg/kg MT1621, plasma
  increase in baseline adjusted AUC, fed compared to fasted: 74%
  increase in baseline adjusted Cmax, fed compared to fasted: 27%
[1]
  AUC0-t GMR (%): 174.38%
  Cmax GMR (%): 127.39%
[2]
  AUC%extrap: 46.24 NC %
  Kel: 0.1569 NC 1/hr
[3]
  AUC%extrap: 6.481 ± 5.9830%
  Kel: 0.0932 ± 0.07205 h⁻¹
[4]
  AUC%extrap: 1.954 ± 1.6169%
  Kel: 0.09785 ± 0.06094 h⁻¹
[5]
  AUC%extrap: 1.244 ± 1.1349%
  Kel: 0.2445 ± 0.2863 h⁻¹
[6]
  dose proportionality of AUC (total extent of exposure, AUC0-t and AUC0-inf): neither AUC nor Cmax was dose proportional
  dose proportionality of Cmax: neither AUC nor Cmax was dose proportional
Both sexes, human, oral, Treatment D: single 133.3 mg/kg MT1621, fed (high-fat breakfast), baseline-adjusted plasma, arithmetic mean ± SD, read-out: Vz/F
  Vd/F: 6220 ± 2880 L/kg
Both sexes, human, plasma, oral, 43.3 mg/kg, Treatment A: single 43.3 mg/kg MT1621, fasted, baseline-adjusted plasma, arithmetic mean ± SD
  half-life: 4.42 h
Both sexes, human, plasma, oral, 43.3 mg/kg, Treatment A: single 43.3 mg/kg MT1621, fasted, baseline-adjusted plasma, geometric mean (geometric CV %)
  AUC(0-inf): 3.56 ng·h/mL
Both sexes, human, plasma, oral, 43.3 mg/kg, Treatment A: single 43.3 mg/kg MT1621, fasted, baseline-adjusted plasma, geometric mean (geometric CV %), read-out: AUC0-4
  AUC(0-t): 8.78 ng·h/mL
Both sexes, human, plasma, oral, 43.3 mg/kg, Treatment A: single 43.3 mg/kg MT1621, fasted, baseline-adjusted plasma, geometric mean (geometric CV %), read-out: AUC0-6
  AUC(0-t): 11.1 ng·h/mL
Both sexes, human, plasma, oral, 43.3 mg/kg, Treatment A: single 43.3 mg/kg MT1621, fasted, baseline-adjusted plasma, geometric mean (geometric CV %), read-out: AUC0-48
  AUC(0-t): 18.2 ng·h/mL
Both sexes, human, plasma, oral, 43.3 mg/kg, Treatment A: single 43.3 mg/kg MT1621, fasted, baseline-adjusted plasma, geometric mean (geometric CV %), read-out: AUC0-t
  AUC(0-t): 12.6 ng·h/mL
Both sexes, human, plasma, oral, 43.3 mg/kg, Treatment A: single 43.3 mg/kg MT1621, fasted, baseline-adjusted plasma, geometric mean (geometric CV %), read-out: Cmax
  Cmax: 6.19 ng/mL
Both sexes, human, plasma, oral, 43.3 mg/kg, Treatment A: single 43.3 mg/kg MT1621, fasted, baseline-adjusted plasma, median (minimum, maximum), read-out: Tmax
  Tmax: 0.516 h
Both sexes, human, plasma, oral, 86.7 mg/kg, Treatment B: single 86.7 mg/kg MT1621, fasted, baseline-adjusted plasma, arithmetic mean ± SD
  half-life: 10.4 ± 5.95 h
Both sexes, human, plasma, oral, 86.7 mg/kg, Treatment B: single 86.7 mg/kg MT1621, fasted, baseline-adjusted plasma, geometric mean (geometric CV %)
  AUC(0-inf): 67.2 ng·h/mL
Both sexes, human, plasma, oral, 86.7 mg/kg, Treatment B: single 86.7 mg/kg MT1621, fasted, baseline-adjusted plasma, geometric mean (geometric CV %), read-out: AUC0-4
  AUC(0-t): 21 ng·h/mL
Both sexes, human, plasma, oral, 86.7 mg/kg, Treatment B: single 86.7 mg/kg MT1621, fasted, baseline-adjusted plasma, geometric mean (geometric CV %), read-out: AUC0-6
  AUC(0-t): 23.1 ng·h/mL
Both sexes, human, plasma, oral, 86.7 mg/kg, Treatment B: single 86.7 mg/kg MT1621, fasted, baseline-adjusted plasma, geometric mean (geometric CV %), read-out: AUC0-48
  AUC(0-t): 82.1 ng·h/mL
Both sexes, human, plasma, oral, 86.7 mg/kg, Treatment B: single 86.7 mg/kg MT1621, fasted, baseline-adjusted plasma, geometric mean (geometric CV %), read-out: AUC0-t
  AUC(0-t): 31.7 ng·h/mL
Both sexes, human, plasma, oral, 86.7 mg/kg, Treatment B: single 86.7 mg/kg MT1621, fasted, baseline-adjusted plasma, geometric mean (geometric CV %), read-out: Cmax
  Cmax: 14.2 ng/mL
Both sexes, human, plasma, oral, 86.7 mg/kg, Treatment B: single 86.7 mg/kg MT1621, fasted, baseline-adjusted plasma, median (minimum, maximum), read-out: Tmax
  Tmax: 1.06 h
Both sexes, human, plasma, oral, 133.3 mg/kg, Treatment C, fasted, baseline-adjusted plasma, ANOVA on ln-transformed data, read-out: AUC0-t Geometric LSM, 133.3 mg/kg MT1621, Fasted (Reference)
  AUC(0-t): 91.2 ng·h/mL
Both sexes, human, plasma, oral, 133.3 mg/kg, Treatment C, fasted, baseline-adjusted plasma, ANOVA on ln-transformed data, read-out: Cmax Geometric LSM, 133.3 mg/kg MT1621, Fasted (Reference)
  Cmax: 31.5 ng/mL
Both sexes, human, plasma, oral, 133.3 mg/kg, Treatment C: single 133.3 mg/kg MT1621, fasted, baseline-adjusted plasma, arithmetic mean ± SD
  half-life: 8.76 ± 4.04 h
Both sexes, human, plasma, oral, 133.3 mg/kg, Treatment C: single 133.3 mg/kg MT1621, fasted, baseline-adjusted plasma, geometric mean (geometric CV %)
  AUC(0-inf): 144 ng·h/mL
Both sexes, human, plasma, oral, 133.3 mg/kg, Treatment C: single 133.3 mg/kg MT1621, fasted, baseline-adjusted plasma, geometric mean (geometric CV %), read-out: AUC0-4
  AUC(0-t): 53.1 ng·h/mL
Both sexes, human, plasma, oral, 133.3 mg/kg, Treatment C: single 133.3 mg/kg MT1621, fasted, baseline-adjusted plasma, geometric mean (geometric CV %), read-out: AUC0-6
  AUC(0-t): 60.6 ng·h/mL
Both sexes, human, plasma, oral, 133.3 mg/kg, Treatment C: single 133.3 mg/kg MT1621, fasted, baseline-adjusted plasma, geometric mean (geometric CV %), read-out: AUC0-48
  AUC(0-t): 114 ng·h/mL
Both sexes, human, plasma, oral, 133.3 mg/kg, Treatment C: single 133.3 mg/kg MT1621, fasted, baseline-adjusted plasma, geometric mean (geometric CV %), read-out: AUC0-t
  AUC(0-t): 91.2 ng·h/mL
Both sexes, human, plasma, oral, 133.3 mg/kg, Treatment C: single 133.3 mg/kg MT1621, fasted, baseline-adjusted plasma, geometric mean (geometric CV %), read-out: Cmax
  Cmax: 31.5 ng/mL
Both sexes, human, plasma, oral, 133.3 mg/kg, Treatment C: single 133.3 mg/kg MT1621, fasted, baseline-adjusted plasma, median (minimum, maximum), read-out: Tmax
  Tmax: 1.25 h
Both sexes, human, plasma, oral, 133.3 mg/kg, Treatment D, fed, baseline-adjusted plasma, ANOVA on ln-transformed data, read-out: AUC0-t Geometric LSM, 133.3 mg/kg MT1621, Fed (Test)
  AUC(0-t): 159 ng·h/mL
Both sexes, human, plasma, oral, 133.3 mg/kg, Treatment D, fed, baseline-adjusted plasma, ANOVA on ln-transformed data, read-out: Cmax Geometric LSM, 133.3 mg/kg MT1621, Fed (Test)
  Cmax: 40.1 ng/mL
Both sexes, human, plasma, oral, 133.3 mg/kg, Treatment D: single 133.3 mg/kg MT1621, fed (high-fat breakfast), baseline-adjusted plasma, arithmetic mean ± SD
  half-life: 5.35 ± 3.11 h
Both sexes, human, plasma, oral, 133.3 mg/kg, Treatment D: single 133.3 mg/kg MT1621, fed (high-fat breakfast), baseline-adjusted plasma, geometric mean (geometric CV %)
  AUC(0-inf): 149 ng·h/mL
Both sexes, human, plasma, oral, 133.3 mg/kg, Treatment D: single 133.3 mg/kg MT1621, fed (high-fat breakfast), baseline-adjusted plasma, geometric mean (geometric CV %), read-out: AUC0-4
  AUC(0-t): 74.4 ng·h/mL
Both sexes, human, plasma, oral, 133.3 mg/kg, Treatment D: single 133.3 mg/kg MT1621, fed (high-fat breakfast), baseline-adjusted plasma, geometric mean (geometric CV %), read-out: AUC0-6
  AUC(0-t): 119 ng·h/mL
Both sexes, human, plasma, oral, 133.3 mg/kg, Treatment D: single 133.3 mg/kg MT1621, fed (high-fat breakfast), baseline-adjusted plasma, geometric mean (geometric CV %), read-out: AUC0-48
  AUC(0-t): 141 ng·h/mL
Both sexes, human, plasma, oral, 133.3 mg/kg, Treatment D: single 133.3 mg/kg MT1621, fed (high-fat breakfast), baseline-adjusted plasma, geometric mean (geometric CV %), read-out: AUC0-t
  AUC(0-t): 159 ng·h/mL
Both sexes, human, plasma, oral, 133.3 mg/kg, Treatment D: single 133.3 mg/kg MT1621, fed (high-fat breakfast), baseline-adjusted plasma, geometric mean (geometric CV %), read-out: Cmax
  Cmax: 40.1 ng/mL
Both sexes, human, plasma, oral, 133.3 mg/kg, Treatment D: single 133.3 mg/kg MT1621, fed (high-fat breakfast), baseline-adjusted plasma, median (minimum, maximum), read-out: Tmax
  Tmax: 4 h
Both sexes, human, plasma, oral, under fasted conditions, read-out: median Tmax
  Tmax: 1 h
Both sexes, human, plasma, oral, under fed conditions, read-out: median Tmax
  Tmax: 3 h
Following MT1621, all 3 dose levels
  plasma exposure compared to endogenous (baseline) concentrations: consistently higher
